Test results reported in patent publication US11976070B1, “Substituted pyrimido[6’, 1’:2,3]imidazo[4,5-c][1,6]naphthyridines as CK2 inhibitors” (KING FAISAL UNIVERSITY, priority 2023, dated 2024).
Like-named read-outs stand apart in the source and are kept apart here.

Columns and labels:
PC3 (prostate) = assay: In vitro cytotoxic activity (MTT) assay, PC3; format: cell-based; details: Homo sapiens, Prostate cell; PC3 (prostate) cells, exposed for 96 hours; read-out: IC50, 50% inhibition of cell proliferation
Description: (§1) Compounds 1-12 were screened for their in vitro cytotoxic activity utilizing a 3-(4,5-dimethyl-thiazol-2-yl)-2,5-diphenyltetrazolium bromide (MTT) assay against selected cancer human cell lines consisting of PC3 (prostate), HCT116 (colon). A375 (melanoma), H1299 (lung), MIAPaCa-2 (pancreas), HL60 (leukemia), MCF7 (breast), MDA-MB-231 (breast) (T. Mosmann, J. Immunol. Meth., 1983, 65, 55-63). The cells were cultured at 37° C. in RMPI1640 medium supplemented with 10% fetal bovine serum, 50 IU/mL penicillin, and 50 μg/mL streptomycin in a 5% CO2 incubator. All cells were sub-cultured 3 times/week by trypsinisation. Viable cells were seeded and allowed to adhere for 12 h before a test drug was added in 96-well plates at an initial density of 1.0×10^5 cells/mL. Tumour cell lines were separately exposed to various concentrations of the tested compounds followed by incubation at a temperature of 37° C. during 96 h inside a medium of fresh RMPI 1640. Cells were subsequently incubated at 37° C. using MTT at 0.5 mg/mL during 4 h. After removal of supernatant, formazan crystals were dissolved in isopropanol and the optical density was measured at 570 nm. CX-4945 was used as a positive control.

HCT116 (colon) = assay: In vitro cytotoxic activity (MTT) assay, HCT116; format: cell-based; details: Homo sapiens, HCT-116; HCT116 (colon) cells, exposed for 96 hours; read-out: IC50, 50% inhibition of cell proliferation
Description: as §1

A375 (melanoma) = assay: In vitro cytotoxic activity (MTT) assay, A375; format: cell-based; details: Homo sapiens, A-375; A375 (melanoma) cells, exposed for 96 hours; read-out: IC50, 50% inhibition of cell proliferation
Description: as §1

H1299 (lung) = assay: In vitro cytotoxic activity (MTT) assay, H1299; format: cell-based; details: Homo sapiens, NCI-H1299; H1299 (lung) cells, exposed for 96 hours; read-out: IC50, 50% inhibition of cell proliferation
Description: as §1

MIAPaCa-2 (pancreas) = assay: In vitro cytotoxic activity (MTT) assay, MIAPaCa-2; format: cell-based; details: Homo sapiens, MIA PaCa-2; MIAPaCa-2 (pancreas) cells, exposed for 96 hours; read-out: IC50, 50% inhibition of cell proliferation
Description: as §1

HL60 (leukemia) = assay: In vitro cytotoxic activity (MTT) assay, HL60; format: cell-based; details: Homo sapiens, HL-60; HL60 (leukemia) cells, exposed for 96 hours; read-out: IC50, 50% inhibition of cell proliferation
Description: as §1

MCF7 (breast) = assay: In vitro cytotoxic activity (MTT) assay, MCF7; format: cell-based; details: Homo sapiens; MCF7 (breast) cells, exposed for 96 hours; read-out: IC50, 50% inhibition of cell proliferation
Description: as §1

MDA-MB-231 (breast) = assay: In vitro cytotoxic activity (MTT) assay, MDA-MB-231; format: cell-based; details: Homo sapiens; MDA-MB-231 (breast) cells, exposed for 96 hours; read-out: IC50, 50% inhibition of cell proliferation
Description: as §1

[1] = molecular target: T1, recombinant human CK2 (RRββ-holoenzyme) (Homo sapiens, UniProt P68400); assay: CK2 Kinase Assay (radiometric, [γ-33P]ATP); format: biochemical; details: final ATP 15 μM, 10 min at 30° C.; read-out: protein kinase CK2 inhibition IC50
T1 construct: purchased Millipore
T1 sequence (P68400 whole entry): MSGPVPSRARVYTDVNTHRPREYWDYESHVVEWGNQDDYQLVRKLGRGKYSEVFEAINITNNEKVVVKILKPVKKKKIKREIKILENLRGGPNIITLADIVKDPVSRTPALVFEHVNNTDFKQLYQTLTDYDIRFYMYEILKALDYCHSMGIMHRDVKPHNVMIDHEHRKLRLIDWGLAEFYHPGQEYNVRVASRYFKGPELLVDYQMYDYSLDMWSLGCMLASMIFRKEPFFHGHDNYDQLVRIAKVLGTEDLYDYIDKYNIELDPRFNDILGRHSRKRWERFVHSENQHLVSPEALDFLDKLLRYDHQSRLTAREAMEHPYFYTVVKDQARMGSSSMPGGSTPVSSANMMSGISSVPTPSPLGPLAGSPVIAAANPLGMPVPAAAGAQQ
T1 sequence (P67870 whole entry partner): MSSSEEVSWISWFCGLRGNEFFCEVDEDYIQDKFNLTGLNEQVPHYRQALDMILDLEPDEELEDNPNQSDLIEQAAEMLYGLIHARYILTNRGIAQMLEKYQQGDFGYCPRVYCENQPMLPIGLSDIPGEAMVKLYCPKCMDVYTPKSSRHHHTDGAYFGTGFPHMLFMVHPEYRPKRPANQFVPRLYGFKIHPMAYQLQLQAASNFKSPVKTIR
Description: CK2 Kinase Assay was conducted using the protocol as described in Pierre F. et al; J. Med. Chem. 2011, 54, 635-654. The tested compounds in aqueous solution were added at a volume of 10 μL to a reaction mixture comprising 10 μL of assay dilution buffer (ADB; 20 mM MOPS, pH 7.2, 25 mM β-glycerol phosphate, 5 mM EGTA, 1 mM sodium orthovanadate, and 1 mM dithiothreitol), 10 μL of substrate peptide (RRRDDDSDDD, dissolved in ADB at a concentration of 1 mM), 10 μL of recombinant human CK2 (RRββ-holoenzyme, 25 ng dissolved in ADB; Millipore). Reactions were initiated by the addition of 10 μL of ATP solution (90% 75 mMMgCl2, 75 μM ATP (final ATP concentration:15 μM) dissolved in ADB; 10% [γ-33P] ATP (stock 1 mCi/100 μL: 3000 Ci/mmol (Perkin-Elmer) and maintained for 10 min at 30° C. The reactions were quenched with 100 μL of 0.75% phosphoric acid and then transferred to and filtered through a phosphor cellulose filter plate (Millipore). After washing each well five times with 0.75% phosphoric acid, the plate was dried under vacuum for 5 min and, following the addition of 15 μL of scintillation fluid to each well, the residual radioactivity was measured using a Wallac […]. The IC50 values were derived from eight concentrations of test inhibitors.

[2] = test system: various human cancer cell lines; assay: In vitro cytotoxic activity assay, panel statement; format: cell-based
Description: as §1

Compound: Clc1cccc(Nc2nc3ccncc3c3nc4ccncn4c23)c1 [Compound 1, N-(3-chlorophenyl)pyrimido[6′,1′:2,3]imidazo[4,5-c][1,6]naphthyridin-6-amine]
- IC50 (PC3 (prostate)): 1400 nM
- IC50 (HCT116 (colon)): 1100 nM
- IC50 (A375 (melanoma)): 2900 nM
- IC50 (H1299 (lung)): 2500 nM
- IC50 (MIAPaCa-2 (pancreas)): 900 nM
- IC50 (HL60 (leukemia)): 3200 nM
- IC50 (MCF7 (breast)): 5100 nM
- IC50 (MDA-MB-231 (breast)): 4500 nM
- IC50 [1]: 22 nM
- in vitro anti-proliferative activity, in words [2]: promising anti-proliferative activity
- in vitro anti-proliferative activity, in words ([2]; listed as 13): promising in vitro anti-proliferative activity
